Experiments:
Type in all cases: cell-based
Tcf/Lef = assay: TOP FLASH (Tcf/Lef) reporter luciferase assay; conditions: MCF-7 cells, 30 μg/ml, 12 hours, vs vehicle
Description: (§1) FIG. 4 is graphs and a photograph showing that collagen VI stabilizes β-catenin and cyclin D1. […] A TCF/LEF luciferase reporter construct was transfected into MCF-7 cells and luciferase activity was analyzed after treatment either were vehicle (PBS; black bars), collagen VI (30 μg/ml; white bars) or collagen 1 (30 μg/ml; gray bars) in DME-BSA. […] The serum free medium used in the chase contained vehicle, collagen VI (30 μg/ml) or collagen 1 (30 μg/ml). After each time point, immunoprecipitations were performed for β-catenin and analyzed by SDS-PAGE followed by quantitation of β-catenin at each time point. […] MCF-7 cells were exposed for 3 hours to vehicle, human collagen VI (30 μg/ml) or collagen I (30 μg/ml). Cells were then lysed and analyzed for cyclin D1 by western blot analysis. […] Panel D is a photograph of a western blot showing that collagen VI acts in part through NG2 in MCF-7 cells to stabilize cyclin D1. […] Results are shown as the MEAN±SEM in all cases.
Luciferase Assays. […] Two days prior to the luciferase readout, cells were transiently transfected with the TOPFLASH (contains 4 Tcf/Lef binding elements) luciferase promoter construct as well as a thymidine kinase driven renilla luciferase construct as a transfection control vector (Promega, Madison, Wis.) (Albanese et al., 2003). […]

β-catenin = assay: Metabolic labeling pulse/chase of β-catenin; conditions: MCF-7 cells, 30 μg/ml, chase 30 min to 2 hrs
Description: as §1
Metabolic Labeling for β-catenin. MCF-7 cells, seeded in 6-well plates, were treated in methionine/cysteine deficient DMEM for 1 hour. […]
Collagen VI prevents degradation of endogenous β-catenin in MCF-7 cells. […] To test this, β-catenin levels were monitored over the course of several hours after a pulse/chase reaction. […]

cyclin D1 = assay: Cyclin D1 levels by western blot; conditions: MCF-7 cells, treated five hours, vs vehicle
Description: FIG. 4 is graphs and a photograph showing that collagen VI stabilizes β-catenin and cyclin D1. […] A TCF/LEF luciferase reporter construct was transfected into MCF-7 cells and luciferase activity was analyzed after treatment either were vehicle (PBS; black bars), collagen VI (30 μg/ml; white bars) or collagen 1 (30 μg/ml; gray bars) in DME-BSA. […] The serum free medium used in the chase contained vehicle, collagen VI (30 μg/ml) or collagen 1 (30 μg/ml). After each time point, immunoprecipitations were performed for β-catenin and analyzed by SDS-PAGE followed by quantitation of β-catenin at each time point. […] Cells were then lysed and analyzed for cyclin D1 by western blot analysis. […] Panel D is a photograph of a western blot showing that collagen VI acts in part through NG2 in MCF-7 cells to stabilize cyclin D1. […] Results are shown as the MEAN±SEM in all cases.
Immunoblotting. Separation of proteins by sodium dodecyl sulfate (SDS)-poly acrylamide gel electrophoresis (PAGE) fluorography, and immunoblotting were performed as previously described (Scherer et al., 1994). […]
Collagen VI increases cyclin D1 protein stability through NG2/CSPG. […] MCF-7 cells pretreated with the αNG2/CSPG antibody were exposed to collagen VI protein, and cyclin D1 levels were monitored. […]

- induction of Tcf/Lef activity (Tcf/Lef): did not activate
Substance: collagen I: Human collagen I obtained from Collaborative Biomedical Products; comparison protein
- degradation of 35S-labeled β-catenin (β-catenin): marginal stabilization
- cyclin D1 levels (cyclin D1): no significant change
